Patent US8071768B2, “Alkylquinoline and alkylquinazoline kinase modulators” (Janssen Pharmaceutica, N.V., priority 2005, dated 2011)

molecular target: T1, TrkB (Homo sapiens, UniProt Q16620); assay: Trk B Fluorescence Polarization Kinase Assay; type: biochemical; conditions: uncertainty ±10%
T1 construct: purchased Upstate 14-507M
Protocol: Trk B Fluorescence Polarization Kinase Assay (TrkB IC50 Data)
The compounds of the present invention are also specific inhibitors of TrkB. Selection of preferred compounds of Formula I for use as TrkB inhibitors was performed in the following manner. The TrkB assay utilized the fluorescein-labeled phosphopeptide and the anti-phosphotyrosine antibody included in the Panvera Phospho-Tyrosine Kinase Kit (Green) supplied by Invitrogen. When TrkB phosphorylated poly Glu4Tyr, the fluorescein-labeled phosphopeptide was displaced from the anti-phosphotyrosine antibody by the phosphorylated poly Glu4Tyr, thus decreasing the FP value. The TrkB kinase reaction was incubated at room temperature for 30 minutes under the following conditions: 50 nM TrkB (Upstate, catalog # 14-507M), 20 ug/mL poly Glu4Tyr, 150 uM ATP, 5 mM MgCl2, 1% compound in DMSO. The kinase reaction was stopped with the addition of EDTA. The fluorescein-labeled phosphopeptide and the anti-phosphotyrosine antibody were added and incubated for 30 minutes at room temperature. Data points were an average of triplicate samples. Inhibition and IC50 data analysis were done with GraphPad Prism using a non-linear regression fit with a multiparamater, sigmoidal dose-response (variable slope) equation.

T1 sequence (Q16620 32-822): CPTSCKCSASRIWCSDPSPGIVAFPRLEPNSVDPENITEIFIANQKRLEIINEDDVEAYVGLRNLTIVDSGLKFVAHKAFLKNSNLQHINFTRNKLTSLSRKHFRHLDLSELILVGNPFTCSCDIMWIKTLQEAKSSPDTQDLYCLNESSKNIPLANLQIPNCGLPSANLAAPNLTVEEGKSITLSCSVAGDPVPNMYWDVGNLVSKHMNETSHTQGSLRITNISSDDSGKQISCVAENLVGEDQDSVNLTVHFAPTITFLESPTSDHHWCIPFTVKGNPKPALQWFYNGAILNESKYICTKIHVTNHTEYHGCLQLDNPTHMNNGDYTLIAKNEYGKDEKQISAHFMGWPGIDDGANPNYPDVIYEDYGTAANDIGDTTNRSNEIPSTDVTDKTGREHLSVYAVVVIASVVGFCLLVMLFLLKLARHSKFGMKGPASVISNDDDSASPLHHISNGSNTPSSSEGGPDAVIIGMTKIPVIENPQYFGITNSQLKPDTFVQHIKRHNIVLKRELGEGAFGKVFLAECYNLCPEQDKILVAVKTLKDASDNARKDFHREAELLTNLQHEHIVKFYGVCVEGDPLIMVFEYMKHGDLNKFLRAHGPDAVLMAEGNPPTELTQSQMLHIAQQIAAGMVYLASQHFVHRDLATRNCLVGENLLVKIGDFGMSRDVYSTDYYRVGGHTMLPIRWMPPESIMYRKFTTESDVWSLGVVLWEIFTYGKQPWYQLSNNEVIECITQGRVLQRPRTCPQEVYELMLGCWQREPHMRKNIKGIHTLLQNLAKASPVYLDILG

Row | SMILES | IC50
1 | O=C1CCCN1CCOc1ccc2c(C3CCN(C(=O)Nc4ccc(N5CCOCC5)cc4)CC3)ncnc2c1 [Compound 85, 4-{7-[2-(2-Oxo-pyrrolidin-1-yl)-ethoxy]-quinazolin-4-yl}-piperidine-1-carboxylic acid (4-morpholin-4-yl-phenyl)-amide] | > 20 µM
2 | CS(=O)(=O)NCCCOc1ccc2c(C3CCN(C(=O)Nc4ccc(N5CCCC5)nc4)CC3)ncnc2c1 [Compound 86, 4-[7-(3-Methanesulfonylamino-propoxy)-quinazolin-4-yl]-piperidine-1-carboxylic acid (6-pyrrolidin-1-yl-pyridin-3-yl)-amide] | 2 µM
3 | CS(=O)(=O)NCCCOc1ccc2c(C3CCN(C(=O)Nc4ccc(N5CCOCC5)nc4)CC3)ncnc2c1 [Compound 87, 4-[7-(3-Methanesulfonylamino-propoxy)-quinazolin-4-yl]-piperidine-1-carboxylic acid (6-morpholin-4-yl-pyridin-3-yl)-amide] | 7.2 µM
4 | O=C1CCCN1CCCOc1ccc2c(C3CCN(C(=O)Nc4cnc(N5CCCC5)nc4)CC3)ncnc2c1 [Compound 90, 4-{7-[3-(2-Oxo-pyrrolidin-1-yl)-propoxy]-quinazolin-4-yl}-piperidine-1-carboxylic acid (2-pyrrolidin-1-yl-pyrimidin-5-yl)-amide] | 0.3 µM
5 | O=C(Nc1ccc(N2CCOCC2)nc1)N1CCC(c2ncnc3cc(OCCN4CCOC4=O)ccc23)CC1 [Compound 91, 4-{7-[2-(2-Oxo-oxazolidin-3-yl)-ethoxy]-quinazolin-4-yl}-piperidine-1-carboxylic acid (6-morpholin-4-yl-pyridin-3-yl)-amide] | 1.9 µM
6 | O=C(Nc1ccc(N2CCCC2)nc1)N1CCC(c2ncnc3cc(OCCN4CCOC4=O)ccc23)CC1 [Compound 92, 4-{7-[2-(2-Oxo-oxazolidin-3-yl)-ethoxy]-quinazolin-4-yl}-piperidine-1-carboxylic acid (6-pyrrolidin-1-yl-pyridin-3-yl)-amide] | 1.3 µM
7 | CN1CCC(COc2ccc3c(C4CCN(C(=O)Nc5ccc(N6CCOCC6)cc5)CC4)ncnc3c2)CC1 [Compound 94, 4-[7-(1-Methyl-piperidin-4-ylmethoxy)-quinazolin-4-yl]-piperidine-1-carboxylic acid (4-morpholin-4-yl-phenyl)-amide] | > 42 µM
8 | O=C(Nc1ccc(N2CCCC2)nc1)N1CCC(c2ncnc3cc(OCCN4CCOCC4)ccc23)CC1 [Compound 95, 4-[7-(2-Morpholin-4-yl-ethoxy)-quinazolin-4-yl]-piperidine-1-carboxylic acid (6-pyrrolidin-1-yl-pyridin-3-yl)-amide] | 3.4 µM
9 | O=C(Nc1ccc(N2CCOCC2)cc1)N1CCC(c2ncnc3cc(OCCN4CCOCC4)ccc23)CC1 [Compound 96, 4-[7-(2-Morpholin-4-yl-ethoxy)-quinazolin-4-yl]-piperidine-1-carboxylic acid (4-morpholin-4-yl-phenyl)-amide] | 27.9 µM
10 | CC(=O)N1CCN(CCOc2ccc3c(C4CCN(C(=O)Nc5ccc(N6CCOCC6)cc5)CC4)ncnc3c2)CC1 [Compound 97, 4-{7-[2-(4-Acetyl-piperazin-1-yl)-ethoxy]-quinazolin-4-yl}-piperidine-1-carboxylic acid (4-morpholin-4-yl-phenyl)-amide] | > 20 µM
11 | O=C(Nc1ccc(N2CCOCC2)cc1)N1CCC(c2ncnc3cc(OCCC4CCCCN4)ccc23)CC1 (centres unmarked) [Compound 98, 4-[7-(2-Piperidin-2-yl-ethoxy)-quinazolin-4-yl]-piperidine-1-carboxylic acid (4-morpholin-4-yl-phenyl)-amide] | > 20 µM
12 | CN1CCC(COc2ccc3c(C4CCN(C(=O)Nc5ccc(N6CCCC6)nc5)CC4)ncnc3c2)CC1 [Compound 99, 4-[7-(1-Methyl-piperidin-4-ylmethoxy)-quinazolin-4-yl]-piperidine-1-carboxylic acid (6-pyrrolidin-1-yl-pyridin-3-yl)-amide] | 6.41 µM
13 | CC(C)Oc1ccc(NC(=O)N2CCC(c3ncnc4cc(N(C)C)ccc34)CC2)cc1 [Compound 100, 4-(7-Dimethylamino-quinazolin-4-yl)-piperidine-1-carboxylic acid (4-isopropoxy-phenyl)-amide] | 0.1 µM
14 | CC(C)Oc1ccc(NC(=O)N2CCC(c3ncnc4ccc(OCCCN5CCCC5=O)cc34)CC2)cc1 [Compound 101, 4-{6-[3-(2-Oxo-pyrrolidin-1-yl)-propoxy]-quinazolin-4-yl}-piperidine-1-carboxylic acid (4-isopropoxy-phenyl)-amide] | 0.3 µM
15 | CC(C)Oc1ccc(NC(=O)N2CCC(c3ncnc4cc(NCCCN5CCN(C)CC5)ccc34)CC2)cc1 [Compound 102, 4-{7-[3-(4-Methyl-piperazin-1-yl)-propylamino]-quinazolin-4-yl}-piperidine-1-carboxylic acid (4-isopropoxy-phenyl)-amide] | 0.2 µM
16 | CC(C)Oc1ccc(NC(=O)N2CCC(c3ncnc4cc(N5CCN(C)CC5)ccc34)CC2)cc1 [Compound 103, 4-[7-(4-Methyl-piperazin-1-yl)-quinazolin-4-yl]-piperidine-1-carboxylic acid (4-isopropoxy-phenyl)-amide] | 0.2 µM
17 | CN1CCN(CCCOc2ccc3c(C4CCN(C(=O)Nc5ccc(N6CCCC6)nc5)CC4)ncnc3c2)CC1 [Compound 104, 4-{7-[3-(4-Methyl-piperazin-1-yl)-propoxy]-quinazolin-4-yl}-piperidine-1-carboxylic acid (6-pyrrolidin-1-yl-pyridin-3-yl)-amide] | 0.8 µM
18 | CN1CCN(CCCOc2ccc3c(C4CCN(C(=O)Nc5cnc(N6CCCC6)nc5)CC4)ncnc3c2)CC1 [Compound 105, 4-{7-[3-(4-Methyl-piperazin-1-yl)-propoxy]-quinazolin-4-yl}-piperidine-1-carboxylic acid (2-pyrrolidin-1-yl-pyrimidin-5-yl)-amide] | 0.2 µM
19 | CN1CCN(CCCOc2ccc3c(C4CCN(C(=S)Nc5ccc(N6CCOCC6)nc5)CC4)ncnc3c2)CC1 [Compound 106, 4-{7-[3-(4-Methyl-piperazin-1-yl)-propoxy]-quinazolin-4-yl}-piperidine-1-carbothioic acid (6-morpholin-4-yl-pyridin-3-yl)-amide] | 16.3 µM
20 | CN1CCC(COc2ccc3c(C4CCN(C(=O)Nc5ccc(OC6CCC6)nc5)CC4)ncnc3c2)CC1 [Compound 107, 4-[7-(1-Methyl-piperidin-4-ylmethoxy)-quinazolin-4-yl]-piperidine-1-carboxylic acid (6-cyclobutoxy-pyridin-3-yl)-amide] | 0.2 µM
21 | CN1CCC(COc2ccc3c(C4CCN(C(=O)Nc5ccc(N6CCOCC6)nc5)CC4)ncnc3c2)CC1 [Compound 108, 4-[7-(1-Methyl-piperidin-4-ylmethoxy)-quinazolin-4-yl]-piperidine-1-carboxylic acid (6-morpholin-4-yl-pyridin-3-yl)-amide] | 5.4 µM
22 | CN1CCC(COc2ccc3c(C4CCN(C(=O)Nc5ccc(N6CCCC6)cc5)CC4)ncnc3c2)CC1 [Compound 109, 4-[7-(1-Methyl-piperidin-4-ylmethoxy)-quinazolin-4-yl]-piperidine-1-carboxylic acid (4-pyrrolidin-1-yl-phenyl)-amide] | 8.9 µM
23 | O=C(Nc1ccc(N2CCOCC2)nc1)N1CCC(c2ncnc3cc(OCCCn4cnnc4)ccc23)CC1 [Compound 110, 4-[7-(3-[1,2,4]Triazol-4-yl-propoxy)-quinazolin-4-yl]-piperidine-1-carboxylic acid (6-morpholin-4-yl-pyridin-3-yl)-amide] | 15 µM
24 | CN(C)c1c(NCCCOc2ccc3c(C4CCN(C(=O)Nc5ccc(N6CCCC6)nc5)CC4)ncnc3c2)c(=O)c1=O [Compound 111, 4-{7-[3-(2-Dimethylamino-3,4-dioxo-cyclobut-1-enylamino)-propoxy]-quinazolin-4-yl}-piperidine-1-carboxylic acid (6-pyrrolidin-1-yl-pyridin-3-yl)-amide] | > 20 µM
25 | O=C(NCCCOc1ccc2c(C3CCN(C(=O)Nc4ccc(N5CCOCC5)nc4)CC3)ncnc2c1)N1CCOCC1 [Compound 113, Morpholine-4-carboxylic acid (3-{4-[1-(6-morpholin-4-yl-pyridin-3-ylcarbamoyl)-piperidin-4-yl]-quinazolin-7-yloxy}-propyl)-amide] | 11.5 µM
26 | CCN1CCN(CCCOc2ccc3c(C4CCN(C(=O)Nc5ccc(N6CCOCC6)cc5)CC4)ncnc3c2)CC1 [Compound 115, 4-{7-[3-(4-Ethyl-piperazin-1-yl)-propoxy]-quinazolin-4-yl}-piperidine-1-carboxylic acid (4-morpholin-4-yl-phenyl)-amide] | > 20 µM
27 | CC(=O)N1CCN(CCCOc2ccc3c(C4CCN(C(=O)Nc5ccc(N6CCOCC6)cc5)CC4)ncnc3c2)CC1 [Compound 117, 4-{7-[3-(4-Acetyl-piperazin-1-yl)-propoxy]-quinazolin-4-yl}-piperidine-1-carboxylic acid (4-morpholin-4-yl-phenyl)-amide] | > 20 µM
28 | CS(=O)(=O)N1CCN(CCCOc2ccc3c(C4CCN(C(=O)Nc5ccc(N6CCOCC6)cc5)CC4)ncnc3c2)CC1 [Compound 118, 4-{7-[3-(4-Methanesulfonyl-piperazin-1-yl)-propoxy]-quinazolin-4-yl}-piperidine-1-carboxylic acid (4-morpholin-4-yl-phenyl)-amide] | 14.6 µM
29 | O=C(Nc1ccc(N2CCOCC2)cc1)N1CCC(c2ncnc3cc(OCCCN4CCC[C@H]4CO)ccc23)CC1 [Compound 119, (S)-4-{7-[3-(2-Hydroxymethyl-pyrrolidin-1-yl)-propoxy]-quinazolin-4-yl}-piperidine-1-carboxylic acid (4-morpholin-4-yl-phenyl)-amide] | > 20 µM
